Test results: patent publication US9974795B2, “Anticancer agent composition” (CARNA BIOSCIENCES, INC., priority 2014, dated 2018)

Tests used:
[1] = test system: Colo205 cells; assay: FACS of PI-stained cells: cell cycle and rate of cell death (SubG1), Colo205; assay type: cell-based; settings: for cell death induced by Cdc7 inhibitor on coadministration with Wee1 inhibitor MK-1775: Cdc7 inhibitor 0.1 μM, MK-1775 0.25, 0.5, 0.75 μM, FIG. 1 / FIG. 5; for cell death on coadministration with Chk1 inhibitor SCH900776: Cdc7 inhibitor 0.3 μM or 0.1 μM, SCH900776 3.3 μM, FIG. 9; for cell death on coadministration with Chk1 inhibitor UCN-01 / cell death on coadministration with Hsp90 inhibitor geldanamycin: Cdc7 inhibitor 0.1, 0.03 or 0.3 μM; for cell death on coadministration with Chk1 inhibitor UCN-01: UCN-01 333 nM, FIG. 10; for cell death on coadministration with Hsp90 inhibitor geldanamycin: geldanamycin 10 nM or 33 nM, FIG. 11
Description: COLO205 (RCB2127, RIKEN BRC) was cultured in a 10-cm dish using an RPMI-1640 medium (Sigma-Aldrich Corp., R8758) supplemented with 10% FCS (Equitech-Bio, Inc.) and 5% penicillin-streptomycin (GIBCO/Thermo Fisher Scientific, Inc., 15140). The medium was removed from the cells in a well grown state (70 to 90% confluent), and the cells were dissociated from the dish by treatment with 2 mL of trypsin (TrypL Express, manufactured by GIBCO/Thermo Fisher Scientific, Inc.) and recovered into the same medium as above.
(§1) The recovered cells of each line were seeded at 2.5×10^5 cells/ml/well to a 6-well plate (BD Falcon, catalog No. 353046). The cells were cultured overnight in a 5% CO2 incubator. On the next day, 500 μl of a medium supplemented with 1.5 μl of a stock solution having a 1000-fold concentration of each compound to be added was added to each well, […]
After the reaction of the cells with the compound for 48 to 72 hours, the cells were dissociated from the well by treatment with trypsin (TrypL Express, manufactured by GIBCO/Thermo Fisher Scientific, Inc.) and washed with DPBS. Then, 1 ml of cold ethanol was added thereto, and the cells were stored at −30° C. until staining. The cells were washed with DPBS once before staining and left standing with a propidium iodide (PI) solution at room temperature for 30 minutes or longer in the dark. The cells stained with PI were studied for the cell cycle and the rate of cell death indicated by SubG1 using FACS.

[2] = test system: MDA-MB-231 cells; assay: Cell growth inhibition (number of nuclei, Hoechst 33342) with BLISS score evaluation; assay type: cell-based, human; settings: 72 hours, Cdc7 inhibitor 19.5 to 10000 nM, MK-1775 7.81 to 1000 nM, FIGS. 12-15
Description: The BLISS scoring is a criterion often used in the evaluation of the synergistic effect of drugs used in combination (Borisy et al., Proc. Natl. Acad. Sci. USA. 100 (13): 7977-7982 (2003); and Buck et al., Mol. Cancer. Ther. 5 (11) (2006)). This BLISS scoring was used to analyze the effect of the Cdc7 inhibitor and the Wee1 inhibitor used in combination on the inhibition of cancer cell growth. […]
After the addition of the compounds, the cells were incubated for 72 hours. […] Then, the number of nuclei (the number of cells) was measured using a cell image analyzer (ArrayScan VTI HCS Reader, Thermo Fischer Scientific, Inc.) (Ex/Em=350/461 nm).
After 72 hours, the average number from the control wells was used as the number of untreated control cells (Gunt72), and the average number from the compound-treated wells was used as the number of compound-treated cells (G72). Wells in which the medium was merely replaced 24 hours after the cell inoculation were counted as an initial value and used as the initial number of cells (G0). […]
Assuming that the first test compound and the second test compound each acted as a single agent (i.e., the rate of cell growth when the concentration of either of the compounds was 0), the theoretical BLISS independence (BLISSin) of each well can be calculated according to the following expression: BLISSin=G(First test compound)×G(Second test compound) […]

[3] = test system: Panc-1 cells (pancreatic cancer cell line); assay: FACS of PI-stained cells: cell death, Panc-1 cells; assay type: cell-based; settings: Cdc7 inhibitor 0.1 μM, MK-1775 0.5 and 0.75 μM, FIG. 3
Description: Panc-1 (ATCC, CRL-1469) was cultured in a 10-cm dish using a D-MEM medium (Sigma-Aldrich Corp., D5796) supplemented with 10% FCS (Equitech-Bio, Inc.) and 5% penicillin-streptomycin (GIBCO/Thermo Fisher Scientific, Inc., 15140). The medium was removed from the cells in a well grown state (70 to 90% confluent), and the cells were dissociated from the dish by treatment with 2 mL of trypsin (TrypL Express, manufactured by GIBCO/Thermo Fisher Scientific, Inc.) and recovered into the same medium as above.
as §1
After the reaction of the cells with the compound for 48 to 72 hours, the cells were dissociated from the well by treatment with trypsin (TrypL Express, manufactured by GIBCO/Thermo Fisher Scientific, Inc.) and washed with DPBS. Then, 1 ml of cold ethanol was added thereto, and the cells were stored at −30° C. until staining. The cells were washed with DPBS once before staining and left standing with a propidium iodide (PI) solution at room temperature for 30 minutes or longer in the dark. […]

[4] = test system: NHDF cells; assay: FACS of PI-stained cells: cell death, normal NHDF cells; assay type: cell-based; settings: Cdc7 inhibitor 0.1 μM, MK-1775 0.25, 0.5, 0.75 μM, FIG. 2
Description: NHDF cells (Cryo NHDF-NeoCC-2509, manufactured by Sanko Junyaku Co., Ltd.) were cultured in a 10-cm dish using a medium (Brett Kit FGM2, CLCC-3132). The medium was removed from the NHDF cells in a well grown state (70 to 90% confluent), and the cells were washed with 5 mL of HEPES-buffered saline in a subculture reagent set (CLCC-5034, manufactured by Sanko Junyaku Co., Ltd.).
After removal of the HEPES-buffered saline, the whole dish was covered with 3 mL of a trypsin/EDTA solution included in the set. The cells were dissociated from the dish by giving a small impact on the side of the dish with taps of a hand. Then, 3 mL of a trypsin-neutralizing solution included in the set was added to the cells, which were then recovered.
as §1
After the reaction of the cells with the compound for 48 to 72 hours, the cells were dissociated from the well by treatment with trypsin (TrypL Express, manufactured by GIBCO/Thermo Fisher Scientific, Inc.) and washed with DPBS. […]

[5] = Colo205, Cdc7 inhibitor 0.1 μM or 0.3 μM, MK-1775 0.5 μM, FIG. 8

C=CCn1c(=O)c2cnc(Nc3ccc(N4CCN(C)CC4)cc3)nc2n1-c1cccc(C(C)(C)O)n1 [MK-1775, reference compound]
proportion of cells in the M-phase ([1]; MK-1775 0.1 to 1 μM): increased

CC(C)OC(=O)C1=C(NN2CCOCC2)OC(=Cc2c[nH]c3ncccc23)C1=O [compound (I-A), isopropyl 5-[(1H-pyrrolo[2,3-b]pyridin-3-yl)methylene]-2-(morpholinoamino)-4-oxo-4,5-dihydrofuran-3-carboxylate]
cell death induced by Cdc7 inhibitor on coadministration with Wee1 inhibitor MK-1775 ([1]; Colo205): synergistically increased

CCOC(=O)C1=C(N2CCc3ccc(OC)cc3C2)O/C(=C\c2c[nH]c3ncccc23)C1=O [compound (I-B), ethyl 5-[(1H-pyrrolo[2,3-b]pyridin-3-yl)methylene]-2-(7-methoxy-3,4-dihydroisoquinolin-2(1H)-yl)-4-oxo-4,5-dihydrofuran-3-carboxylate]
cell death on coadministration with MK-1775 ([1]; Colo205, compound (I-B) 0.3 μM, FIG. 6): synergistically increased

CC(C)OC(=O)C1=C(NN2CCN(CC(F)(F)F)CC2)O/C(=C\c2c[nH]c3ncccc23)C1=O [compound (I-C), isopropyl 5-[(1H-pyrrolo[2,3-b]pyridin-3-yl)methylene]-4-oxo-2-{[4-(2,2,2-trifluoroethyl)piperazinyl]amino}-4,5-dihydrofuran-3-carboxylate]
cell death on coadministration with MK-1775 ([1]; Colo205, compound (I-C) 0.1 μM or 0.3 μM, FIG. 7): synergistically increased

CCOC(=O)C1=C(NN2CCN(CC(F)(F)F)CC2)O/C(=C\c2c[nH]c3ncccc23)C1=O [compound (I-D), ethyl 5-[(1H-pyrrolo[2,3-b]pyridin-3-yl)methylene]-4-oxo-2-{[4-(2,2,2-trifluoroethyl)piperazinyl]amino}-4,5-dihydrofuran-3-carboxylate]
inhibition of cancer cell growth in combined use with MK-1775 (BLISS score) [2]: synergistically inhibits | cell death induced by Cdc7 inhibitor on coadministration with MK-1775 [3]: synergistically increased | cell death induced by Cdc7 inhibitor on coadministration with Wee1 inhibitor MK-1775 ([1]; Colo205): synergistically increased | cell death on coadministration with Chk1 inhibitor SCH900776 ([1]; Colo205): synergistically increased | cell death on coadministration with Chk1 inhibitor UCN-01 ([1]; Colo205): synergistically increased | cell death on coadministration with Hsp90 inhibitor geldanamycin ([1]; Colo205): synergistically increased | cytotoxicity to normal cells on addition of MK-1775 [4]: no increase

O=C(OCC1CC1)C1=C(NN2CCOCC2)O/C(=C\c2c[nH]c3ncccc23)C1=O [compound (I-E), cyclopropylmethyl 5-[(1H-pyrrolo[2,3-b]pyridin-3-yl)methylene]-2-(morpholinoamino)-4-oxo-4,5-dihydrofuran-3-carboxylate]
inhibition of cancer cell growth in combined use with MK-1775 (BLISS score) [2]: synergistically inhibits | cell death induced by Cdc7 inhibitor on coadministration with MK-1775 [3]: synergistically increased | cell death induced by Cdc7 inhibitor on coadministration with Wee1 inhibitor MK-1775 ([1]; Colo205): synergistically increased | cell death on coadministration with Chk1 inhibitor SCH900776 ([1]; Colo205): synergistically increased | cell death on coadministration with Chk1 inhibitor UCN-01 ([1]; Colo205): synergistically increased | cell death on coadministration with Hsp90 inhibitor geldanamycin ([1]; Colo205): synergistically increased | cell death on coadministration with MK-1775, varied composition ([1]; Colo205, compound (I-E):MK-1775 = 1:100 to 3:1 (ratio by μM), FIG. 4): sufficiently synergistically increased | cytotoxicity to normal cells on addition of MK-1775 [4]: no increase

O=C1NCCc2[nH]c(-c3ccncc3)cc21 [compound (I-F), 2-(pyridin-4-yl)-1,5,6,7-tetrahydro-4H-pyrrolo[3,2-c]pyridinone, reference compound]
cell death on coadministration with MK-1775 [1, 5]: synergistically increased

NC(=O)c1cc(-c2ccnc(N)n2)[nH]c1-c1ccc(Cl)cc1Cl [compound (I-G), 5-(2-amino-pyrimidin-4-yl)-2-(2,4-dichloro-phenyl)-1H-pyrrole-3-carboxylic acid amide, reference compound]
cell death on coadministration with MK-1775 [1, 5]: synergistically increased
